The values below come from patent US9273057B2 (Bristol-Myers Squibb Company, priority 2012, dated 2016).

Each structure is given as a SMILES string.

The target of the test is CK2A1 (CK2α/β) (Homo sapiens, UniProt P68400). Kind of test: CK2 kinase assay, CK2A1 (CK2α/β). Type of test: biochemical. The following applies: Table A; read-out: CK2A1 (CK2α/β) (IC50).
CK2A1 (CK2α/β), sequence (P68400 whole entry, species assumed): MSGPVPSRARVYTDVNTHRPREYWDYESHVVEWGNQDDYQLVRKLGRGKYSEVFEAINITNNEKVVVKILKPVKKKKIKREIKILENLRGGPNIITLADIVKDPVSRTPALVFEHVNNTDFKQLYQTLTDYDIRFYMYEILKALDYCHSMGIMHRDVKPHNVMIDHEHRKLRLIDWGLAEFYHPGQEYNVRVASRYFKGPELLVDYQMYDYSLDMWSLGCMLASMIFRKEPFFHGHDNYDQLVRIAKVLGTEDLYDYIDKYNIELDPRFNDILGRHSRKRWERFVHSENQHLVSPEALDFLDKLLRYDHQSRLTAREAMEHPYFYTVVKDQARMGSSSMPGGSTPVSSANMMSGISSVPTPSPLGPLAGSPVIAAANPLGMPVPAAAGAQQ
CK2A1 (CK2α/β), sequence (P67870 whole entry partner, species assumed): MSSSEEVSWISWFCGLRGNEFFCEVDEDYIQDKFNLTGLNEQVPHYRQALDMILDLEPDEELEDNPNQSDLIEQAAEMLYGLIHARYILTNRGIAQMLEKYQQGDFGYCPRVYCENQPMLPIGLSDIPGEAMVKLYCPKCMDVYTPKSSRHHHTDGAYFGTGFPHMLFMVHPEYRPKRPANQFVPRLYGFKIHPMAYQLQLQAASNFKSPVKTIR
Turning to `N#Cc1cc(Nc2nc(NC3CC3)c3ncc(C#N)n3n2)c(Cl)c(N2CCC3C(CCN3C[C@H](O)CF)C2)c1` (stereo partly drawn) [Example 449, 2-((2-chloro-5-cyano-3-(1-((S)-3-fluoro-2-hydroxypropyl)hexahydro-1H-pyrrolo[3,2-c]pyridin-5(6H)-yl)phenyl)amino)-4-(cyclopropylamino)imidazo[2,1-f][1,2,4]triazine-7-carbonitrile], the IC50 was determined as 0.91 nM.

Turning to `CC(C)(O)CN1CCC2CN(c3cc(C#N)cc(Nc4nc(NC5CC5)c5ncc(C#N)n5n4)c3Cl)CCC21` (centres unmarked) [Example 450, 2-((2-chloro-5-cyano-3-(1-(2-hydroxy-2-methylpropyl)hexahydro-1H-pyrrolo[3,2-c]pyridin-5(6H)-yl)phenyl)amino)-4-(cyclopropylamino)imidazo[2,1-f][1,2,4]triazine-7-carbonitrile], the IC50 was found to be 1.5 nM.

As to `N#Cc1cc(Nc2nc(NC3CC3)c3ncc(C#N)n3n2)c(Cl)c(N2CC[C@@H]3[C@@H](CCN3[C@H]3CS(=O)(=O)C[C@@H]3O)C2)c1` [Example 452, 2-((2-chloro-5-cyano-3-(1-((3R,4R)-4-hydroxy-1,1-dioxidotetrahydrothiophen-3-yl)hexahydro-1H-pyrrolo[3,2-c]pyridin-5(6H)-yl)phenyl)amino)-4-(cyclopropylamino)imidazo[2,1-f][1,2,4]triazine-7-carbonitrile], the IC50 came out at 0.82 nM.

In the case of `N#Cc1cc(Nc2nc(NC3CC3)c3ncc(C#N)n3n2)c(Cl)c(N2CC3CNCC3C2)c1` (centres unmarked) [Example 455, 2-((2-chloro-5-cyano-3-(hexahydropyrrolo[3,4-c]pyrrol-2(1H)-yl)phenyl)amino)-4-(cyclopropylamino)imidazo[2,1-f][1,2,4]triazine-7-carbonitrile], the IC50 is 0.49 nM.

`CN1CC2CN(c3cc(C#N)cc(Nc4nc(NC5CC5)c5ncc(C#N)n5n4)c3Cl)CC2C1` (centres unmarked) [Example 461, 2-((2-chloro-5-cyano-3-(5-methylhexahydropyrrolo[3,4-c]pyrrol-2(1H)-yl)phenyl)amino)-4-(cyclopropylamino)imidazo[2,1-f][1,2,4]triazine-7-carbonitrile]: the IC50 amounted to 2.46 nM.

`COC(=O)N1CC2CN(c3cc(C#N)cc(Nc4nc(NC5CC5)c5ncc(C#N)n5n4)c3Cl)CC2C1` (centres unmarked) [Example 462, methyl 5-(2-chloro-5-cyano-3-((7-cyano-4-(cyclopropylamino)imidazo[2,1-f][1,2,4]triazin-2-yl)amino)phenyl)hexahydro-pyrrolo[3,4-c]pyrrole-2(1H)-carboxylate]: the IC50 stood at 3 nM.

As to `N#Cc1cc(CN2CCCC3(COC3)C2)c(Cl)c(Nc2nc(NC3CC3)c3ncc(C#N)n3n2)c1` [Example 463, 2-((3-(2-oxa-6-azaspiro[3.5]nonan-6-ylmethyl)-2-chloro-5-cyanophenyl)amino)-4-(cyclopropylamino)imidazo[2,1-f][1,2,4]triazine-7-carbonitrile], the IC50 came out at 1 nM.

On to `CN(CCC#N)Cc1cc(C#N)cc(Nc2nc(NC3CC3)c3ncc(C#N)n3n2)c1Cl` [Example 464, 2-[(2-chloro-5-cyano-3-{[(2-cyanoethyl)(methyl)amino]methyl}phenyl)amino]-4-(cyclopropylamino)imidazo[2,1-f][1,2,4]triazine-7-carbonitrile], for which the IC50 turned out to be 0.57 nM.

As for `N#Cc1cc(CN2CCN(CCO)CC2)c(Cl)c(Nc2nc(NC3CC3)c3ncc(C#N)n3n2)c1` [Example 465, 2-[(2-chloro-5-cyano-3-{[4-(2-hydroxyethyl)piperazin-1-yl]methyl}phenyl)amino]-4-(cyclopropylamino)imidazo[2,1-f][1,2,4]triazine-7-carbonitrile], the IC50 came to 1.66 nM.

Regarding `N#Cc1cc(CNCCN2CCOCC2)c(Cl)c(Nc2nc(NC3CC3)c3ncc(C#N)n3n2)c1` [Example 466, 2-{[2-chloro-5-cyano-3-({[2-(morpholin-4-yl)ethyl]amino}methyl)phenyl]amino}-4-(cyclopropylamino)imidazo[2,1-f][1,2,4]triazine-7-carbonitrile], the IC50 turned out to be 1.31 nM.

In the case of `N#Cc1cc(CNCc2ccccn2)c(Cl)c(Nc2nc(NC3CC3)c3ncc(C#N)n3n2)c1` [Example 467, 2-[(2-chloro-5-cyano-3-{[(pyridin-2-ylmethyl)amino]methyl}phenyl)amino]-4-(cyclopropylamino)imidazo[2,1-f][1,2,4]triazine-7-carbonitrile], the IC50 was 0.45 nM.

With `CC(C)(C)NCc1cc(C#N)cc(Nc2nc(NC3CC3)c3ncc(C#N)n3n2)c1Cl` [Example 468, 2-({3-[(tert-butylamino)methyl]-2-chloro-5-cyanophenyl}amino)-4-(cyclopropylamino)imidazo[2,1-f][1,2,4]triazine-7-carbonitrile], the IC50 was 0.3 nM.

For the molecule `CC(C)(C)CNCc1cc(C#N)cc(Nc2nc(NC3CC3)c3ncc(C#N)n3n2)c1Cl` [Example 469, 2-[(2-chloro-5-cyano-3-{[(2,2-dimethylpropyl)amino]methyl}phenyl)amino]-4-(cyclopropylamino)imidazo[2,1-f][1,2,4]triazine-7-carbonitrile], the IC50 is 1.48 nM.

For the molecule `N#Cc1cc(CNCC2CC2)c(Cl)c(Nc2nc(NC3CC3)c3ncc(C#N)n3n2)c1` [Example 470], the IC50 was found to be 1.5 nM.

On to `N#Cc1cc(CN2CCC(C(N)=O)CC2)c(Cl)c(Nc2nc(NC3CC3)c3ncc(C#N)n3n2)c1` [Example 471, 1-[(2-chloro-5-cyano-3-{[7-cyano-4-(cyclopropylamino)imidazo[2,1-f][1,2,4]triazin-2-yl]amino}phenyl)methyl]piperidine-4-carboxamide], for which the IC50 stood at 0.87 nM.

Turning to `CC(C)(C)N1CCN(Cc2cc(C#N)cc(Nc3nc(NC4CC4)c4ncc(C#N)n4n3)c2Cl)CC1` [Example 472, 2-((3-[(4-tert-butylpiperazin-1-yl)methyl]-2-chloro-5-cyanophenyl}amino)-4-(cyclopropylamino)imidazo[2,1-f][1,2,4]triazine-7-carbonitrile], the IC50 was 1.7 nM.

On to `CC(=O)N[C@H]1CCN(Cc2cc(C#N)cc(Nc3nc(NC4CC4)c4ncc(C#N)n4n3)c2Cl)C1` [Example 473, N-[(3S)-1-[(2-chloro-5-cyano-3-{[7-cyano-4-(cyclopropylamino)imidazo[2,1-f][1,2,4]triazin-2-yl]amino}phenyl)methyl]pyrrolidin-3-yl]acetamide], for which the IC50 was 0.56 nM.

On to `N#CCCN(Cc1cc(C#N)cc(Nc2nc(NC3CC3)c3ncc(C#N)n3n2)c1Cl)CC1CCCO1` (centres unmarked) [Example 474, 2-[(2-chloro-5-cyano-3-{[(2-cyanoethyl)(oxolan-2-ylmethyl)amino]methyl}phenyl)amino]-4-(cyclopropylamino)imidazo[2,1-f][1,2,4]triazine-7-carbonitrile], for which the IC50 turned out to be 1.55 nM.

Turning to `COCCN(C)Cc1cc(C#N)cc(Nc2nc(NC3CC3)c3ncc(C#N)n3n2)c1Cl` [Example 475, 2-[(2-chloro-5-cyano-3-{[(2-methoxyethyl)(methyl)amino]methyl}phenyl)amino]-4-(cyclopropylamino)imidazo[2,1-f][1,2,4]triazine-7-carbonitrile], the IC50 amounted to 1.78 nM.

Turning to `COCCN1CCN(Cc2cc(C#N)cc(Nc3nc(NC4CC4)c4ncc(C#N)n4n3)c2Cl)CC1` [Example 476, 2-[(2-chloro-5-cyano-3-{[4-(2-methoxyethyl)piperazin-1-yl]methyl}phenyl)amino]-4-(cyclopropylamino)imidazo[2,1-f][1,2,4]triazine-7-carbonitrile], the IC50 was found to be 2.98 nM.
